The values below come from patent US20140336196A1, “PHOSPHORIC ACID SALTS OF SITAGLIPTIN” (Merck Sharp & Dohme Corp., priority 2011, published 2014).

Structures are written as SMILES. Counter-ions that a name gives are not always drawn.

The nature of the data set: Physical stability of the crystalline salt at elevated temperature and humidity. The class given is physicochemical.

`N[C@@H](CC(=O)N1CCn2c(nnc2C(F)(F)F)C1)Cc1cc(F)c(F)cc1F` [Bis-[(2R)-4-oxo-4-[3-(trifluoromethyl)-5,6-dihydro[1,2,4]triazolo[4,3-a]pyrazin-7(8H)-yl]-1-(2,4,5-trifluorophenyl)butan-2-amine]phosphoric acid trihydrate salt]: the “stability at elevated temperature and humidity” value (elevated temperature and humidity (general statement)) is reported as “unexpectedly stable”. Moreover, the physical stability entry (solid crystalline salt, 40° C. at 75% relative humidity for 2 weeks) is “physically stable”.
